Our source for the RP-LC retention time values is the METLIN SMRT retention time set (Domingo-Almenara et al. 2019).

A short description of the data set: gradient 5% acetonitrile 3 min, to 50% in 2 min, to 85% in 15 min, held 3 min, 100 µL/min. The conditions noted are these: column: Zorbax Extend-C18 2.1 x 50 mm; eluents: water / acetonitrile, 0.1% formic acid. The method, boiled down:
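Over 3 months, pure standards in mixtures of ~100 molecules were run by HPLC coupled to a quadrupole time-of-flight mass spectrometer in positive and negative ionization mode. The column was a Zorbax Extend-C18 (2.1 × 50 mm, 1.8 μm) at 100 μL/min, eluted with water and acetonitrile each holding 0.1% formic acid, with 40 μL dead and 900 μL dwell volumes. Retention time was determined from adduct peaks chosen by software and checked manually.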
Regarding `CCOC(=O)C(C)Sc1nnc2n1CCN2c1ccc(OC)cc1` (stereo not given), the RP-LC retention time was 741 s.

`COc1cccc(CCC(=O)N2CCN(C3=NC=CN4CC(C)N=C34)CC2)c1` (stereo not given) returned an RP-LC retention time of 591 s.

`CCN(CC)CCOC(=O)C(O)(c1ccccc1)c1ccccc1` returned an RP-LC retention time of 714 s.

Compound `CCC(=O)N1CCCc2cc(NC(=O)COc3ccc(F)cc3)ccc21` gave an RP-LC retention time of 850 s.

`COc1ccc(CNS(=O)(=O)c2ccc(-c3c(C)noc3C)cc2)cc1` gave an RP-LC retention time of 886 s.

As to `CN(C)c1ccc(CNC(=O)CCCn2c(=O)c3cccn3c3ccc(F)cc32)cc1`, the RP-LC retention time worked out at 658 s.

`CCCn1cc(C(=O)N2CCOCC2)c2cccnc21` registered an RP-LC retention time of 640 s.

`Cn1nc(C(=O)N2CCCC(C(=O)NC3CC3)C2)c2c1CCN(C(=O)COc1ccccc1)C2` (stereo not given) gave an RP-LC retention time of 644 s.

Compound `Cc1cccc(CN2CCCn3nc(C(=O)NC4CC4)cc3C2=O)c1` showed an RP-LC retention time of 744 s.

Turning to `CCCN1C(=O)Cc2ccccc2C1C(=O)NC1CCCCCC1` (stereo not given), the RP-LC retention time turned out to be 862 s.

`O=C(c1ccc(-c2noc(C3CCC3)n2)cc1)N1CCCC1` registered an RP-LC retention time of 879 s.

As to `CCOC(=O)c1cc(S(=O)(=O)N2CCCC2C(=O)NCc2cccs2)cn1C` (stereo not given), the RP-LC retention time amounted to 823 s.

Take `Cc1ccc(C)c(S(=O)(=O)N2CCC3(CCC(CN4CCN(C)CC4)O3)CC2)c1` (stereo not given): the RP-LC retention time was 638 s.

Take `O=C(NCCCO)C(=O)NCCc1ccc(Cl)cc1`: the RP-LC retention time amounted to 698 s.

The compound `CCOC(=O)C1CCN(c2nc(=O)n(CC(=O)Nc3ccc(C)cc3)c3ccccc23)CC1` displayed an RP-LC retention time of 843 s.

With `CCS(=O)(=O)c1nc2ccc(NS(=O)(=O)c3c(C)n[nH]c3C)cc2s1`, the RP-LC retention time was 693 s.

Turning to `Cc1cccc(S(=O)(=O)N2CCCC(C)(C(=O)NCc3cccc(F)c3)C2)c1` (stereo not given), the RP-LC retention time worked out at 972 s.

`COc1ccc(C)cc1NC(=O)N1CCC2(CC1)NC(=O)c1cccc(Cl)c1N2` came in with an RP-LC retention time of 819 s.

Consider `Cc1cccc(-c2ncccc2CNC(=O)c2ccco2)c1`, for which the RP-LC retention time came out at 596 s.

Regarding `CCc1nnc(-c2cc(C)n(CC(=O)Nc3ccc(F)c(Cl)c3)c2C)o1`, the RP-LC retention time was 861 s.

`CNC(=O)C1CCCN(c2nc3ncn(CC(=O)Nc4ccccc4Cl)c(=O)c3s2)C1` (stereo not given) showed an RP-LC retention time of 654 s.

Regarding `CCn1cc(C(=O)Nc2cccc(F)c2)c2cccnc21`, the RP-LC retention time came to 892 s.

`COCCn1ccc2nc(C)c(C(=O)N3CCN(c4ccccn4)CC3)cc2c1=O` had an RP-LC retention time of 554 s.

`O=C(Nc1ccc(Br)cc1)Nc1ccc2nc3n(c(=O)c2c1)CCCC3` yielded an RP-LC retention time of 740 s.

Turning to `Cc1ccccc1S(=O)(=O)N1CCc2c(c(-c3nnc(-c4ccc(F)cc4)o3)nn2C)C1`, the RP-LC retention time came to 955 s.

In the case of `CN(C1CCc2nn(C)c(=O)n2CC1)S(=O)(=O)c1ccccc1Cl` (stereo not given), the RP-LC retention time worked out at 865 s.

On to `COc1ccc(S(=O)(=O)NCC2Cn3cccc3C(=O)N2C)cc1` (stereo not given), for which the RP-LC retention time came to 687 s.

The compound `CC(C)Oc1ccc(-c2noc(CN3N=NC4C(=O)N(c5ccccc5)C(=O)C43)n2)cc1` (stereo not given) yielded an RP-LC retention time of 1020 s.

Turning to `CN(C)C[C@@H]1CN(c2ncccn2)C[C@H]1NS(=O)(=O)c1ccc(C#N)cc1`, the RP-LC retention time was 589 s.

For the compound `O=C(Nc1cccc(Cl)c1F)N1CCC(N2CC(F)(F)C[C@H]2COCC2CC2)CC1`, the RP-LC retention time was found to be 762 s.

`COc1ccc(CNC(=O)c2cnc(N3CCC4(CC3)OCCO4)nc2N)c(OC)c1`: the RP-LC retention time turned out to be 640 s.

`Cc1cc(OCC(=O)N[C@H](C(=O)O)c2ccccc2)c2c3c(c(=O)oc2c1)CCCC3` came in with an RP-LC retention time of 879 s.

In turn, `CCc1nc(-c2csc(S(=O)(=O)N3CCCC(C(=O)NCc4ccccc4)C3)c2)no1` (stereo not given) came in with an RP-LC retention time of 960 s.

For `Cc1ccc(-c2cc3n(n2)CCCN(C(=O)CCN2C(=O)NC(C)(C)C2=O)C3)cc1C`, the RP-LC retention time was 730 s.

Regarding `CC(C)(C)c1cc(C(=O)NC2CCCCC2)nc2ccnn12`, the RP-LC retention time is 1240 s.

In turn, `CCN(Cc1ccc(Cl)cc1)Cc1cc(=O)n2cc(C)ccc2n1` yielded an RP-LC retention time of 583 s.

As to `CCN(CC)CCCNC(=O)c1cc2n(n1)CC(C)(C(=O)NCc1ccc(F)cc1)N(C)C2=O` (stereo not given), the RP-LC retention time stood at 596 s.

Compound `Cc1cccc(CN2C[C@@H]3C(=O)N(Cc4ccc5c(c4)OCO5)C(=O)[C@@H]3C2)c1` had an RP-LC retention time of 734 s.

Compound `Cn1nc2n(c1=O)CCN(C(=O)Cc1cccs1)CC2` returned an RP-LC retention time of 610 s.

On to `CCOC(=O)c1ccccc1NC(=O)N1CCOc2ccc(C)cc21`, for which the RP-LC retention time is 1220 s.

In the case of `CCCCNC(=O)c1ccc(-n2ccnc2SCC(=O)Nc2ccccc2)cc1`, the RP-LC retention time amounted to 746 s.

`c1cc(CN2CCCCC2c2nncn2CC2CC2)co1` (stereo not given) had an RP-LC retention time of 561 s.

Regarding `Cc1cc(F)ccc1NS(=O)(=O)c1cc(-c2[nH]ncc2C(=O)N(C)C)oc1C`, the RP-LC retention time is 697 s.

In the case of `CCc1ccc(S(=O)(=O)N2CCCC2c2nc(-c3cccc(C)c3)no2)cc1` (stereo not given), the RP-LC retention time amounted to 1260 s.

As for `CCc1cc(=O)n(CC(=O)Nc2cc(Cl)ccc2OC)c(N2CCOCC2)n1`, the RP-LC retention time was 935 s.

In turn, `CC(C)(C)c1csc(-c2csc(S(=O)(=O)Nc3ccc(F)c(F)c3)c2)n1` yielded an RP-LC retention time of 1260 s.

Consider `CC(C)c1ccc(S(=O)(=O)N2CCC(C(=O)NCc3cscn3)CC2)cc1`, for which the RP-LC retention time was found to be 805 s.

In turn, `CN1C2CCC1[C@@H](COC(=O)c1ccccc1)[C@@H](O)C2` (stereo not given in full) yielded an RP-LC retention time of 636 s.

Regarding `O=C(NCCC1CCN(S(=O)(=O)c2ccccc2)CC1)Nc1cc(F)ccc1F`, the RP-LC retention time came out at 960 s.

As for `Cc1c(C(=O)c2ccccc2)c2ccccc2n1C`, the RP-LC retention time stood at 1030 s.

`O=c1ccc(S(=O)(=O)N2CCCCCC2)cn1Cc1ccccc1F` yielded an RP-LC retention time of 936 s.

`Cc1occc1C(=O)N1CC(c2nc(CCN(C)C(=O)C3CC3)no2)C1` registered an RP-LC retention time of 661 s.

Compound `O=C(NCCOc1cccc(C(F)(F)F)c1)c1ccc([N+](=O)[O-])cc1` came in with an RP-LC retention time of 913 s.

In turn, `COC(=O)c1ccc2nc(NC(=O)c3cc(C)oc3C)sc2c1` showed an RP-LC retention time of 947 s.

Consider `O=C(NOC[C@H](O)CO)c1ccc(F)c(F)c1Nc1ccc(I)cc1F`, for which the RP-LC retention time was 886 s.

In the case of `Cc1ccc(C(=O)N2C[C@H](c3nc(-c4cccnc4)no3)[C@@H](C)C2)c(C)c1`, the RP-LC retention time is 853 s.

The compound `O=C(Cc1noc2ccccc12)N1CCN(c2cc(-c3ccccc3)ncn2)CC1` registered an RP-LC retention time of 745 s.

`COc1ccc(NC(=O)NCCc2cn(C)c3ncccc23)cc1OC` yielded an RP-LC retention time of 612 s.

`Cc1cccn2c(NC(=O)c3ccc(Br)cc3)c(-c3ccccc3)nc12` returned an RP-LC retention time of 715 s.

For `COc1ccc(C2(CNC(=O)c3cc(-c4ccccc4)n[nH]3)CCOCC2)cc1`, the RP-LC retention time amounted to 749 s.
